tested on: HEK Blue™ TNFα reporter cells; test: TNF-α Induced HEK Blue Cellular Assay; assay type: cell-based; conditions: TNF-α stimulated HEK Blue TNFα reporter cells, 24 hrs, secreted alkaline phosphatase (QUANTI-Blue, 620 nm)
Protocol: Test articles were diluted in DMSO and serially diluted into 384 well assay plate (Corning 3765), at final concentrations ranging from […] to 0.5 nM. HEK Blue™ TNFα reporter cells were added at a final density of 10,000 cell per well in assay media [DMEM (Gibco, cat #21063-029), 10% fetal bovine serum (ExcelBio, cat #FND500), 1% Penicillin-Streptomycin (Solarbio, cat #P1400-100]. TNF-α (R&D 210-TA-020/CF) was then added to the assay plate at a final concentration of […]. This plate was then incubated for 24 hrs at 37° C. and 5% CO2. Secreted alkaline phosphatase expression was then measured using QUANTI-Blue™(Invivogen), according to manufacturer instructions and read on an Envision microplate reader at 620 nm.
Inhibition data for test compound over a range of concentration was plotted as percentage inhibition of the test compound (100%=maximum inhibition). IC50 values were determined after correcting for background [(sample read-mean of low control)/(mean of high control-mean of low control)] whereby the low control is DMSO without stimulation and high control is DMSO with stimulation. The IC50 is defined as the concentration of test compound which produces […] and was quantified using the 4 parameter logistic equation to fit the data.

Row | Compound | IC50
1 | CN1C(=O)c2cccc(OC(F)F)c2[C@H]2C[C@@H]1c1nc3ccc(-c4cnc5c(c4)CCC5(C)O)cc3n12 (stereo partly drawn) [Example 1, (1R,11R)-18-(difluoromethoxy)-5-{7-hydroxy-7-methyl-5H,6H-cyclopenta[b]pyridin-3-yl}-12-methyl-2,9,12-triazapentacyclo[9.8.1.0^{2,10}.0^{3,8}.0^{14,19}]icosa-3(8),4,6,9,14(19),15,17-heptaen-13-one] | < 100 nM
2 | [2H]C([2H])([2H])N1C(=O)c2cccc(OC(F)F)c2[C@H]2C[C@@H]1c1nc3ccc(-c4cnc5c(c4)OC[C@@]5(C)N)c(F)c3n12 (single isomer, unassigned) [Example 65] | < 100 nM
3 | [2H]C([2H])([2H])N1C(=O)c2cccc(OC(F)F)c2[C@H]2C[C@@H]1c1nc3ccc(-c4cnc5c(c4)OCC[C@]5(C)O)c(F)c3n12 (single isomer, unassigned) [Example 52] | < 100 nM
4 | [2H]C([2H])([2H])N1C(=O)c2cccc(OC(F)F)c2[C@H]2C[C@@H]1c1nc3ccc(-c4cnc5c(c4)OC[C@]5(C)O)cc3n12 (single isomer, unassigned) [Example 46] | < 100 nM
5 | [2H]C([2H])([2H])N1C(=O)c2cccc(OC(F)F)c2[C@H]2C[C@@H]1c1nc3ccc(-c4cnc5c(c4)OCC[C@]5(C)O)nc3n12 (single isomer, unassigned) [Example 70] | 100 to 1000 nM
6 | CN1C(=O)c2cccc(OC(F)F)c2[C@H]2C[C@@H]1c1nc3ccc(-c4cnc5c(c4)CC[C@]5(C)N)cc3n12 (single isomer, unassigned) [Example 23] | < 100 nM
7 | CN1C(=O)c2cccc(OC(F)F)c2[C@H]2C[C@@H]1c1nc3ccc(-c4cnc5c(c4)OCC[C@@H]5N)cc3n12 [Example 19, (1R,11R)-5-[(4S)-4-amino-2H,3H,4H-pyrano[3,2-b]pyridin-7-yl]-18-(difluoromethoxy)-12-methyl-2,9,12-triazapentacyclo[9.8.1.0^{2,10}.0^{3,8}.0^{14,19}]icosa-3(8),4,6,9,14(19),15,17-heptaen-13-one] | < 100 nM
8 | [2H]C([2H])([2H])N1C(=O)c2cccc(OC(F)F)c2[C@H]2C[C@@H]1c1nc3ccc(-c4cnc5c(c4)OC[C@]5(C)N)c(F)c3n12 (single isomer, unassigned) [Example 66] | < 100 nM

— patent US20260028348A1, “MODULATORS OF TNF-ALPHA ACTIVITY” (Forward Therapeutics, Inc., priority 2023, published 2026)
